Tests used:
GST-hFXR = biological target: T1, GST-hFXR (Homo sapiens, UniProt Q96RI1); settings: UDCA 1000, 300 or 100 μM; 6EUDCA 100, 30 or 10 μM; 15 or 25 min
T1 sequence (Q96RI1 1-486): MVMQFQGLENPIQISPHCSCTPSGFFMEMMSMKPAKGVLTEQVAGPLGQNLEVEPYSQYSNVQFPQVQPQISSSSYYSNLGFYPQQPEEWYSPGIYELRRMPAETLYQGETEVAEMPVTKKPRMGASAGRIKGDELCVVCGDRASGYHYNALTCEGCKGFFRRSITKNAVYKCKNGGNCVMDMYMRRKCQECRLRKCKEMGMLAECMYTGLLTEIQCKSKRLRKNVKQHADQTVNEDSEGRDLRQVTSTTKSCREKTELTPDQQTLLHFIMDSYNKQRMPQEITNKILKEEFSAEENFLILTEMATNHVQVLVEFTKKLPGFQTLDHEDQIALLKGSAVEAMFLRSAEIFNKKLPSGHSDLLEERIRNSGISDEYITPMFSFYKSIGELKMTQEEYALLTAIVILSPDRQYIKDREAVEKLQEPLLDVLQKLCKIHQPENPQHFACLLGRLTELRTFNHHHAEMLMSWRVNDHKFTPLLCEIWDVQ

pAKT S473 = assay: Western blot of AKT phosphorylation in serum-starved HepG2 cells; format: cell-based, human; settings: 10 min
Protocol: Cell extracts were used to separate proteins by SDS-PAGE, and Western blot analysis was performed using specific antibodies against phosphorylated AKT and phosphorylated GSK3beta. […] Extracts were analyzed by Western blot using specific antibodies against pAKT S473 (left panel) or pGSK3beta (right panel).
To further investigate the dose dependence of AKT phosphorylation, we treated HepG2 cells with increasing concentrations of 6EUDCA. Serum-starved HepG2 cell extracts were prepared after incubation with different concentrations of 6EUDCA (DMSO/0 M, 1 μM, 3 μM, 10 µM or 30 µM) for 10 min. Extracts were analyzed by Western blot using specific antibodies against pAKT S473 (left panel) or pGSK3beta (right panel).

phosphorylated AKT = assay: Western blot of AKT phosphorylation in mouse primary hepatocytes from wild-type or fxr-/- mice; settings: serum-starved mouse primary hepatocytes, 10 min
FXR target gene SHP = assay: qPCR analysis of the FXR target gene SHP in HepG2 cells; format: cell-based, human; settings: serum starved HepG2, overnight; 100 μM UDCA, 10 μM 6EUDCA; normalized with 36b4

Structure (SMILES)	binding to FXR in TR-FRET assay (reduction in fluorescence signal of DY246) (GST-hFXR)	dose dependence of AKT phosphorylation (pAKT S473; HepG2, 1 μM, 3 μM, 10 μM or 30 μM)	induction of AKT phosphorylation (pAKT S473; serum starved HepG2 cells)	phosphorylation of AKT in fxr-/- hepatocytes (phosphorylated AKT)	phosphorylation of AKT in wild-type hepatocytes (phosphorylated AKT)	induction of the FXR target gene SHP (qPCR) (FXR target gene SHP)
CC[C@H]1[C@H](O)[C@@H]2[C@H](CC[C@]3(C)[C@@H]([C@H](C)CCC(=O)O)CC[C@@H]23)[C@@]2(C)CC[C@@H](O)C[C@@H]12 [6EUDCA, 3α, 7β-Dihydroxy-6α-ethyl-5β-cholan-24-oic acid]	binds FXR with higher affinity	dose dependent	effective in inducing AKT phosphorylation	not in fxr−/− hepatocytes	induced phosphorylation of AKT in wild-type hepatocytes	neither UDCA nor 6EUDCA could induce the FXR target gene SHP
C[C@H](CCC(=O)O)[C@H]1CC[C@H]2[C@@H]3[C@@H](O)C[C@@H]4C[C@H](O)CC[C@]4(C)[C@H]3CC[C@]12C [UDCA, Ursodeoxycholic acid, reference compound]				not in fxr−/− hepatocytes	induced phosphorylation of AKT in wild-type hepatocytes	
